From US20250195596A1, “COMPOSITION FOR PREVENTING OR TREATING RETINAL DISEASE, CONTAINING CENTELLA ASIATICA EXTRACT” (GENENCELL INC., priority 2018, published 2025) come the findings set out here.

The experiment deals with ARPE-19 cells. The experiment can be described thus: Cell protection from oxidative stress caused by A2E (MTT). It counts as cell-based. The following applies: ARPE-19, A2E accumulated 3 days, 30 μM, 48 hours, UV 5 minutes; in % (unit assumed). The method, then:
To determine the effect of inhibiting macular degeneration, the cell death inhibitory effect of A2E was measured. As test cells, ARPE-19 cells, which are retinal pigment epithelial cells, were used, and the medium, medium composition, and experimental conditions were the same as in Experimental Example 1. ARPE-19 cells were dispensed into a 24-well plate at a concentration of 3×10^4 cells/well and cultured for 24 hours, and then A2E was accumulated at a concentration of 3 µM for 3 days. In order to measure the effect of protecting cells from oxidative stress caused by A2E, the cells were treated with 25 μg/mL, 50 μg/mL, and 100 μg/mL of the 50% alcohol extract of Centella asiatica, and as a positive control, the cells were treated with 30 μM of lutein, which is known to have an inhibitory effect on macular degeneration, and cultured for 48 hours, and after 48 hours, the cells were irradiated with ultraviolet rays using a UV lamp for 5 minutes. The cell growth rate was measured at an absorbance of 570 nm using an MTT reagent, and the absorbance of each test solution was measured and compared with a control not treated with A2E.

With `CC1=C[C@H](O)CC(C)(C)[C@H]1/C=C/C(C)=C/C=C/C(C)=C/C=C/C=C(C)/C=C/C=C(C)/C=C/C1=C(C)C[C@@H](O)CC1(C)C` [Lutein, lutein], the “cell growth rate compared with a control not treated with A2E” value was determined as 71.5 ± 8.22.
